# Reference: ChEMBL document CHEMBL4411303, “Synthesis of tetrazole derivatives bearing pyrrolidine scaffold and evaluation of their antifungal activity against Candida albicans” (Eur J Med Chem, 2019)
# Key:
# Assay type in all cases: functional
# Candida albicans [1] = test: Antifungal activity against Candida albicans ATCC 90028 assessed as planktonic growth inhibition at 5.76 uM after 48 hrs by M27-A3 protocol based method relative to control; conditions: ATCC 90028, 48 h, read-out: GI
# Candida albicans [2] = test: Antifungal activity against Candida albicans ATCC 90028 assessed as planktonic growth inhibition at 0.09 uM after 48 hrs by M27-A3 protocol based method relative to control; conditions: ATCC 90028, 48 h, read-out: GI
# Candida albicans [3] = test: Antifungal activity against Candida albicans ATCC 90028 assessed as planktonic growth inhibition at 11.51 uM after 48 hrs by M27-A3 protocol based method relative to control; conditions: ATCC 90028, 48 h, read-out: GI
# Candida albicans [4] = test: Antifungal activity against Candida albicans ATCC 90028 assessed as planktonic growth inhibition at 0.18 uM after 48 hrs by M27-A3 protocol based method relative to control; conditions: ATCC 90028, 48 h, read-out: GI
# Candida albicans [5] = test: Antifungal activity against Candida albicans ATCC 90028 assessed as planktonic growth inhibition at 23.02 uM after 48 hrs by M27-A3 protocol based method relative to control; conditions: ATCC 90028, 48 h, read-out: GI
# Candida albicans [6] = test: Antifungal activity against Candida albicans ATCC 90028 assessed as planktonic growth inhibition at 46.05 uM after 48 hrs by M27-A3 protocol based method relative to control; conditions: ATCC 90028, 48 h, read-out: GI
# Candida albicans [7] = test: Fungicidal activity against Candida albicans ATCC 90028 assessed as log reduction in fungal load incubated for 48 hrs followed by replating on sabouraud dextrose agar plate and measured after 48 hrs
# Candida albicans [8] = test: Antifungal activity against Candida albicans ATCC 90028 assessed as planktonic growth inhibition at 1.44 uM after 48 hrs by M27-A3 protocol based method relative to control; conditions: ATCC 90028, 48 h, read-out: GI
# Candida albicans [9] = test: Antifungal activity against Candida albicans ATCC 90028 assessed as planktonic growth inhibition at 2.88 uM after 48 hrs by M27-A3 protocol based method relative to control; conditions: ATCC 90028, 48 h, read-out: GI
# Candida albicans [10] = test: Antifungal activity against Candida albicans ATCC 90028 assessed as planktonic growth inhibition at 0.36 uM after 48 hrs by M27-A3 protocol based method relative to control; conditions: ATCC 90028, 48 h, read-out: GI
# Candida albicans [11] = test: Antifungal activity against Candida albicans ATCC 90028 assessed as planktonic growth inhibition at 0.72 uM after 48 hrs by M27-A3 protocol based method relative to control; conditions: ATCC 90028, 48 h, read-out: GI
# Candida albicans [12] = test: Antifungal activity against Candida albicans ATCC 90028 assessed as planktonic growth inhibition at 0.62 uM after 48 hrs by M27-A3 protocol based method relative to control; conditions: ATCC 90028, 48 h, read-out: GI
# Candida albicans [13] = test: Antifungal activity against Candida albicans ATCC 90028 assessed as planktonic growth inhibition at 0.08 uM after 48 hrs by M27-A3 protocol based method relative to control; conditions: ATCC 90028, 48 h, read-out: GI
# Candida albicans [14] = test: Antifungal activity against Candida albicans ATCC 90028 assessed as planktonic growth inhibition at 4.97 uM after 48 hrs by M27-A3 protocol based method relative to control; conditions: ATCC 90028, 48 h, read-out: GI
# Candida albicans [15] = test: Antifungal activity against Candida albicans ATCC 90028 assessed as planktonic growth inhibition at 1.24 uM after 48 hrs by M27-A3 protocol based method relative to control; conditions: ATCC 90028, 48 h, read-out: GI
# Candida albicans [16] = test: Antifungal activity against Candida albicans ATCC 90028 assessed as planktonic growth inhibition at 39.77 uM after 48 hrs by M27-A3 protocol based method relative to control; conditions: ATCC 90028, 48 h, read-out: GI
# Candida albicans [17] = test: Antifungal activity against Candida albicans ATCC 90028 assessed as planktonic growth inhibition at 0.31 uM after 48 hrs by M27-A3 protocol based method relative to control; conditions: ATCC 90028, 48 h, read-out: GI
# Candida albicans [18] = test: Antifungal activity against Candida albicans ATCC 90028 assessed as planktonic growth inhibition at 19.88 uM after 48 hrs by M27-A3 protocol based method relative to control; conditions: ATCC 90028, 48 h, read-out: GI
# Candida albicans [19] = test: Antifungal activity against Candida albicans ATCC 90028 assessed as planktonic growth inhibition at 2.49 uM after 48 hrs by M27-A3 protocol based method relative to control; conditions: ATCC 90028, 48 h, read-out: GI
# Candida albicans [20] = test: Antifungal activity against Candida albicans ATCC 90028 assessed as planktonic growth inhibition at 0.16 uM after 48 hrs by M27-A3 protocol based method relative to control; conditions: ATCC 90028, 48 h, read-out: GI
# Candida albicans [21] = test: Antifungal activity against Candida albicans ATCC 90028 assessed as planktonic growth inhibition at 9.94 uM after 48 hrs by M27-A3 protocol based method relative to control; conditions: ATCC 90028, 48 h, read-out: GI
# Candida albicans [22] = test: Antifungal activity against Candida albicans ATCC 90028 assessed as planktonic growth inhibition at 41.9 uM after 48 hrs by M27-A3 protocol based method relative to control; conditions: ATCC 90028, 48 h, read-out: GI
# Candida albicans [23] = test: Antifungal activity against Candida albicans ATCC 90028 assessed as planktonic growth inhibition at 10.47 uM after 48 hrs by M27-A3 protocol based method relative to control; conditions: ATCC 90028, 48 h, read-out: GI
# Candida albicans [24] = test: Antifungal activity against Candida albicans ATCC 90028 assessed as planktonic growth inhibition at 2.62 uM after 48 hrs by M27-A3 protocol based method relative to control; conditions: ATCC 90028, 48 h, read-out: GI
# Candida albicans [25] = test: Antifungal activity against Candida albicans ATCC 90028 assessed as planktonic growth inhibition at 0.65 uM after 48 hrs by M27-A3 protocol based method relative to control; conditions: ATCC 90028, 48 h, read-out: GI
# Candida albicans [26] = test: Antifungal activity against Candida albicans ATCC 90028 assessed as planktonic growth inhibition at 1.31 uM after 48 hrs by M27-A3 protocol based method relative to control; conditions: ATCC 90028, 48 h, read-out: GI
# Candida albicans [27] = test: Antifungal activity against Candida albicans ATCC 90028 assessed as planktonic growth inhibition at 5.24 uM after 48 hrs by M27-A3 protocol based method relative to control; conditions: ATCC 90028, 48 h, read-out: GI
# Candida albicans [28] = test: Antifungal activity against Candida albicans ATCC 90028 assessed as planktonic growth inhibition at 0.33 uM after 48 hrs by M27-A3 protocol based method relative to control; conditions: ATCC 90028, 48 h, read-out: GI
# Candida albicans [29] = test: Antifungal activity against Candida albicans ATCC 90028 assessed as planktonic growth inhibition at 20.95 uM after 48 hrs by M27-A3 protocol based method relative to control; conditions: ATCC 90028, 48 h, read-out: GI
SMILES,inhibition of growth at 5.76 µM (Candida albicans [1]),inhibition of growth at 0.09 µM (Candida albicans [2]),inhibition of growth at 11.51 µM (Candida albicans [3]),inhibition of growth at 0.18 µM (Candida albicans [4]),inhibition of growth at 23.02 µM (Candida albicans [5]),inhibition of growth at 46.05 µM (Candida albicans [6]),log(activity) (Candida albicans [7]),inhibition of growth at 1.44 µM (Candida albicans [8]),inhibition of growth at 2.88 µM (Candida albicans [9]),inhibition of growth at 0.36 µM (Candida albicans [10]),inhibition of growth at 0.08 µM (Candida albicans [13]),inhibition of growth at 0.16 µM (Candida albicans [20]),inhibition of growth at 41.9 µM (Candida albicans [22]),inhibition of growth at 10.47 µM (Candida albicans [23]),inhibition of growth at 2.62 µM (Candida albicans [24]),inhibition of growth at 0.65 µM (Candida albicans [25]),inhibition of growth at 1.31 µM (Candida albicans [26]),inhibition of growth at 5.24 µM (Candida albicans [27]),inhibition of growth at 0.33 µM (Candida albicans [28]),inhibition of growth at 20.95 µM (Candida albicans [29]),other results
Cc1ccc(-c2nnn(CCCN3CCCC3c3ccccc3)n2)cc1 (stereo unspecified),94.4%,99%,93.4%,99.8%,99.4%,98.5%,-1,97.8%,95.1%,98.8%,,,,,,,,,,,inhibition of growth at 0.72 µM (Candida albicans [11]): 98.8%
Clc1ccc(C2CCCN2CCCn2nnc(-c3ccccc3Cl)n2)cc1 (stereo unspecified),,,,,,,-0.4,,,,98.8%,98.9%,,,,,,,,,inhibition of growth at 0.62 µM (Candida albicans [12]): 99.2%; inhibition of growth at 4.97 µM (Candida albicans [14]): 99.3%; inhibition of growth at 1.24 µM (Candida albicans [15]): 99.2%; inhibition of growth at 39.77 µM (Candida albicans [16]): 99.6%; inhibition of growth at 0.31 µM (Candida albicans [17]): 99%; inhibition of growth at 19.88 µM (Candida albicans [18]): 99.5%; inhibition of growth at 2.49 µM (Candida albicans [19]): 99.3%; inhibition of growth at 9.94 µM (Candida albicans [21]): 99.4%
Cc1ccc(C2CCCN2CCCn2nnc(-c3ccc(Cl)cc3)n2)cc1 (stereo unspecified),,,,,,,-0.5,,,,99.2%,99.1%,99.2%,99.4%,99.2%,99.2%,99.4%,99.4%,99.3%,99.4%,
Cc1ccc(-c2nnn(CCCN3CCCC3c3ccc(Cl)cc3)n2)cc1 (stereo unspecified),,,,,,,-0.4,,,,99.4%,99.5%,98.8%,99.4%,99.3%,99.1%,99.2%,99%,99.2%,99.2%,
Cc1cccc(C2CCCN2CCCn2nnc(-c3ccc(Cl)cc3)n2)c1 (stereo unspecified),,,,,,,-0.4,,,,99.3%,99.3%,98.9%,98.9%,99.3%,99.3%,99.3%,99.3%,99.3%,98.8%,
Cc1ccc(C2CCCN2CCCn2nnc(-c3ccccc3)n2)cc1 (stereo unspecified),99.2%,98.9%,99.5%,99.3%,99%,99%,-0.6,99.2%,99.2%,99%,,,,,,,,,,,inhibition of growth at 0.72 µM (Candida albicans [11]): 99.3%
